In patent US20120238488A1, “COMPOUNDS AND METHODS FOR TREATING NEOPLASIA” (priority 2009, published 2012):

Legend:
SF295 (CNS) = test: SRB assay, SF295; format: cell-based, human
Description: (§1) SRB assays were performed according to standard National Cancer Institute Guidelines. Briefly, human tumor cells from different cancer panels were seeded into 96 well plates in 100 μL (plating densities ranging from 5-40,000 cells/well depending on the doubling time of individual cell lines) in serum-containing media for twenty-four hours prior to the addition of the compounds to be assayed. After 24 hours, one plate of each cell line was fixed in situ with trichloroacetic acid (TCA). The fixed slides were used to determine the cell population for each cell line at the time of drug addition (Tz). Each compound to be tested was solubilized in DMSO and the desired concentration was then added to the medium and diluted serially 1:10 to provide a total of five or ten drug concentrations plus control (in a final volume of 200 μL). The starting dose before any dilution was 100 uM for all compounds.
(§2) Following drug addition, each culture was incubated for forty-eight hours. The assay was terminated with the addition of cold TCA. The supernatant was discarded, and the plates were washed with tap water and air dried. Sulforhodamine B (SRB) solution was then added to each well. After staining, the bound stain was solubilized and the absorbance was read on an automated plate reader at a wavelength of 515 nm.
(§3) Using the absorbance measurements [time zero, (Tz), control growth, (C), and test growth in the presence of drug at the ten concentration levels (Ti)], the percentage growth was calculated at each of the drug concentrations levels. Percentage growth inhibition was calculated as:
(§4) [(Ti−Tz)/(C−Tz)]×100 for concentrations for which Ti>/=Tz […]
(§5) Three dose response parameters were calculated for each experimental agent. […] The drug concentration resulting in total growth inhibition (TGI) was calculated from Ti=Tz. […]
(§6) Values were calculated for each of these three parameters when the level of activity was reached; however, if the effect was not reached or was exceeded, the value for that parameter was expressed as greater or less than the maximum or minimum concentration tested. […]

T470 (Breast) = test: SRB assay, T470; format: cell-based, human; details: 48 h
Description: as §1, §2, §3, §4, §5, §6

[1] = test system: membrane androgen receptor; test: Membrane androgen receptor competition assay, LNCaP cells; format: binding; details: 40 μM compound 30 minutes before 40 μM testosterone-HSA-FITC, FIG. 3A
Description: After a 24 hour serum starvation period, cells were incubated with 40 μM testosterone-HSA-FITC for 1 hour at room temperature. […] Human serum albumin-FITC was used as a control for background staining. After permeabilization with ice-cold acetone for 4 minutes at room temperature, cell nuclei were stained with DAPI. Coverslips were mounted on slides by using the Slow Fade/Antifade Reagent (Molecular Probes) and studied under a LEICA DMLB microscope, equipped with the appropriate fluorescence filters and a Leica DC 300F camera. Specimens were analyzed using the Leica FW4000 computer program.
To determine the capacity of a given compound to preclude binding of fluorescent testosterone-HSA conjugates (TAC) to the membrane androgen receptor, starved LNCaP or DU145 cells on coverslips prepared as described above were pre-treated with 40 μM of the indicated compound for 30 minutes prior to the addition of testosterone-HSA-FITC. At the end of the incubation period, cells were washed twice with PBS and 40 μM of testosterone-HSA-FITC was added. Specimens were prepared and analyzed as described above.

[2] = test system: PC-3 xenografts (prostate adenocarcinoma, grade IV); test: PC-3 xenograft anti-tumor activity
Description: Compound 56 was tested for its anti-tumor activity in PC-3 and A549 xenografts. To generate xenografts in mice, exponentially growing cultures of approximately 10^6 PC-3 cells (prostate adenocarcinoma, grade IV) or A549 cells (lung carcinoma) were injected subcutaneously according to the British practice of bilateral trocar implants at the axillary region of 6-8 weeks old male (PC-3 cells) or female (A549 cells) Nod/Scid mice. The two tumor cell inoculums were added together for each mouse, thus producing a tumor burden per mouse value for data analysis. The advantage of the British system is reduced mouse-to-mouse variability and, thus, the ability to decrease the total number of animals per group, with five or six being sufficient for accurate data analysis of tumor response and evaluation of toxicities.
Tumor volume was calculated according to the formula [(axb2)/2], where a=length and b=width of the tumor as measured with a vernier's caliper (measurements were performed twice a week). All administrations were intraperitoneal. Treated animals received a single injection according to the schedule described for each study (see below). In addition to tumor volume, the parameter, % DT/DC, was calculated, where DT=T−Do and DC=C−Do (Do is the average tumor volume at the beginning of the treatment; T and C are the volumes of treated and untreated tumors, respectively, at a specified day). Optimal DT/DC value was used as a measure of drug activity. Losses of weight, neurological disorders and behavioral and dietary changes were also recorded as indicators of toxicity (side effects). The experiment was terminated when tumor size in untreated animals reached a volume of about 1000-1500 mm^3. All animals were treated according to Greek laws (2015/92), guidelines of the European Union and the European council (86/609 and ETS123, respectively), and Compliance with Standards for Human Care and Use of Laboratory Animals, NIH, USA (Assurance No. A5736-01).
In order to develop PC-3 xenografts, male mice 6-8 weeks old were inoculated bilateral at the two axilla regions at day 0.
Compound 56 was administered intraperitoneallly at the following dpis: d13, d14, d15, d16, d17, d20, d21, d22, d23, d24, d27, d28, 29, d30.

| SMILES | CC50 (SF295 (CNS); Homo sapiens, SF-295, 48 h, read-out: LC50) [µM] | GI50 (SF295 (CNS); Homo sapiens, SF-295, SF295, SRB, 48 h) [µM] | TGI (SF295 (CNS); SF295, SRB, 48 h) [µM] | CC50 (T470 (Breast); Homo sapiens, read-out: LC50) [µM] | GI50 (T470 (Breast); Homo sapiens, T470, SRB) [µM] | TGI (T470 (Breast); T470, SRB) [µM] | membrane fluorescence of TAC-FITC after pre-treatment (binding to mAR precluded) [1] | post mortem analysis on excised PC-3 tumors: tumor growth inhibition ([2]; 17 mgk intraperitoneal) | toxicity (body weight, deaths) ([2]; PC-3 xenograft mice, compound 56 17 mgk, digoxin 2 mgk, intraperitoneal) | metastases versus control group (post mortem) ([2]; PC-3 xenografts, 17 mgk intraperitoneal) | optimal DT/DC ([2]; PC-3 xenografts, 17 mgk intraperitoneal, day 34, p=6×10^−6) [%] | anti-tumor activity in PC-3 xenografts (FIG. 2A) ([2]; mouse, in vivo) |
| --- | --- | --- | --- | --- | --- | --- | --- | --- | --- | --- | --- | --- |
| C[C@]12CCC(=NOCCN)C=C1CCC1C2CC[C@]2(C)C(=O)CCC12 (stereo partly drawn) [Compound 12, (10R,13S)-3-(2-aminoethoxyimino)-10,13-dimethyl-2,3,7,8,9,10,11,12,13,14,15,16-dodecahydro-1H-cyclopenta[a]phenanthren-17(6H)-one] | 9.04 | 3.26 | 6.15 | 69.6 | 5.98 | 26.42 | devoid of membrane fluorescence |  |  |  |  |  |
| C[C@]12CCC(=NOC3CCNC3)CC1CCC1C2CC[C@]2(C)C(=O)CCC12 (stereo partly drawn) [Compound 56, (10S,13S)-10,13-dimethyl-3-(pyrrolidin-3-yloxyimino)tetradecahydro-1H-cyclopenta[a]phenanthren-17(2H)-one] |  |  |  |  |  |  |  | statistical significant tumor growth inhibition | not toxic | suppression of bone lymph node and front axilla metastases | 48.71 | has anti-tumor activities |
